The source made the active and inactive calls. No cut-off for these calls is given here.

For eight compounds, Activity results are on record in ChEMBL document CHEMBL3045274, “Xyloccensins QV, six new 8,9,30-phragmalin ortho ester antifeedants from the Chinese mangrove Xylocarpus granatum” (Tetrahedron, 2005).

The test system of this experiment is Mythimna separata. Description: Antifeedant activity against third instar larvae of Mythimna separata (Oriental armyworm) in compound treated leaf disk at 500 ppm. Type of experiment: functional, organism-based.
With `COC(=O)C[C@@H]1[C@@]2(C)C[C@@]3(O)[C@@](OC(C)=O)([C@@H]2OC(C)=O)[C@@H]2O[C@]4(C)O[C@]5(C[C@@H](OC(C)=O)[C@@]6(C)C(=CC(=O)O[C@@H]6c6ccoc6)[C@]25O4)[C@@]13C`, the outcome was inactive. `COC(=O)[C@@H](O)[C@@H]1[C@@]2(C)C[C@@]3(O)[C@H]([C@H]4O[C@]5(C)O[C@]6(C[C@@H](OC(C)=O)[C@@]7(C)C(=CC(=O)O[C@@H]7c7ccoc7)[C@]46O5)[C@@]13C)[C@@H]2OC(C)=O`: the outcome was inactive. As for `COC(=O)[C@@H](O)[C@@H]1[C@@]2(C)C[C@@]3(O)[C@@](OC(C)=O)([C@@H]2OC(C)=O)[C@@H]2O[C@]4(C)O[C@]5(C[C@@H](OC(C)=O)[C@@]6(C)C(=CC(=O)O[C@@H]6c6ccoc6)[C@]25O4)[C@@]13C`, the outcome was inactive. On to `COC(=O)C[C@@H]1[C@@]2(C)C[C@@]3(O)[C@@](O)([C@@H]2OC(C)=O)[C@@H]2O[C@]4(C)O[C@]5(C[C@@H](OC(C)=O)[C@@]6(C)C(=CC(=O)O[C@@H]6c6ccoc6)[C@]25O4)[C@@]13C`, for which the outcome was inactive. Turning to `COC(=O)[C@@H](O)[C@@H]1[C@@]2(C)C[C@@]3(O)[C@@](O)([C@@H]2OC(C)=O)[C@@H]2O[C@]4(C)O[C@]5(C[C@@H](OC(C)=O)[C@@]6(C)C(=CC(=O)O[C@@H]6c6ccoc6)[C@]25O4)[C@@]13C`, the outcome was inactive. To `COC(=O)[C@@H](OC(C)=O)[C@@H]1[C@@]2(C)C[C@@]3(O)[C@@](O)([C@@H]2OC(C)=O)[C@@H]2O[C@]4(C)O[C@]5(C[C@@H](OC(C)=O)[C@@]6(C)C(=CC(=O)O[C@@H]6c6ccoc6)[C@]25O4)[C@@]13C` belongs “Active”.

In the case of `COC(=O)[C@H](OC(C)=O)[C@H]1[C@]2(C)C[C@]3(O)[C@H]([C@H]2OC(C)=O)[C@H]2O[C@@]4(C)O[C@@]5(CC[C@@]6(C)[C@H](c7ccoc7)OC(=O)C[C@@]6(O)[C@@]25O4)[C@]13C`, the outcome was inactive. For the compound `COC(=O)[C@H](OC(C)=O)[C@H]1[C@]2(C)C[C@]3(O)[C@@](OC(C)=O)([C@H]4O[C@@]5(C)O[C@@]6(CC[C@@]7(C)[C@H](c8ccoc8)OC(=O)C[C@@]7(O)[C@@]46O5)[C@]13C)[C@H]2OC(C)=O`, the result was Active.
